Measured values: patent US20170107486A1, “HEPATOCYTE PRODUCTION VIA FORWARD PROGRAMMING BY COMBINED GENETIC AND CHEMICAL ENGINEERING” (Cellular Dynamics International, Inc., priority 2014, published 2017)

Key:
[1] = tested on: human rtTET-expressing ESCs transfected with GFH, H1ANR3 and TBX3; assay: Hepatic programming efficiency, albumin (ALB) flow analysis; format: cell-based; details: for % ALB-expressing cells (hepatic programming efficiency): 0.5 μM added alone along with doxycycline between day 1 and day 7 post-plating, ALB flow analysis on day 13, FIG. 6
Description: Genes that are either implicated in hepatic differentiation during normal mammalian development or enriched in adult hepatocytes were cloned into the PiggyBac vector (FIG. 3) under the control of the […] promoter (Table 1). To find transcription factors that are able to directly impose mature hepatic fate upon human ESCs, various combinations of transgene-expressing PiggyBac vectors along with the hPBase-expressing vector were introduced into the human ESCs having constitutive expression of rtTET through nucleofection (Minis Ingenio Electroporation solution: cat# MIR50114; program: Amaxa B-016). Nucleofected human ESCs were cultured on matrigel in mTeSR1 (Stem Cell Technologies). Following geneticin (100 μg/ml) selection for stable genomic transgene integration (cells were passaged at lease once prior to differentiation), human ESCs were individualized by accutase treatment and plated to matrigel-coated 12-well plates. Doxycycline (1 μg/ml) was added the next day to induce transgene expression in Hepatocyte Maintenance Medium (HMM, Lonza) supplemented with 0.5 μg/ml insulin, 0.1 μM dexamethasone (dex), and 50 ng/ml Oncostatin M (OSM). After transgene induction for the appropriate number of days, doxycycline was removed, and cells were allowed to transition to hepatocyte-like cells and were maintained in HMM supplemented with 0.5 μg/ml insulin, 0.1 μM dex, and 50 ng/ml OSM prior to characterization. Where appropriate, small molecules, such as MEK inhibitor PD0325901, […] kinase/activin receptor like kinase (ALK5) inhibitor A 83-01, and an analogue of the natural signaling molecule cyclic AMP 8-Bromoadenosine 3',5'-cyclic monophosphate (8-Br-cAMP), were added during hepatic programming. To determine the effect of MEK inhibitor PD0325901 (P) and TGFβ kinase/activin receptor like kinase (ALK5) inhibitor A 83-01 (A) on hepatic programming efficiency, human rtTET-expressing ESCs transfected with […]3 and TBX3 were plated on matrigel-coated 12-well plates at about 0.2×10^6 cells/well in mTeSR supplemented with 10 μM HA100 on day 0. PD0325901 (0.5 μM), A 83-01 (0.5 μM) or both were added along with doxycycline between day 1 and day 7 post-plating. Cells were collected for albumin (ALB) flow analysis on day 13 post-plating. […] To determine the effect of cyclic AMP analog 8-Br-cAMP on hepatic programming, human rtTET-expressing ESCs transfected with […]3 and TBX3 were plated on matrigel-coated 12-well plates at about 0.2×10^6 cells/well in mTeSR supplemented with 10 μM HA100 on day 0. Doxycycline (1 μg/ml), P and A were added between day 1 and day 7 post-plating. Following the removal of doxycycline, P and A on day 7, different concentrations of 8-Br-cAMP were added to promote hepatic transition. Cells were collected for ALB flow analysis on day 13 post-plating.

MEK1 and MEK2 = details: Bain et al., 2007; cited from earlier work

Nc1ncnc2c1nc(Br)n2[C@@H]1O[C@@H]2COP(=O)(O)O[C@H]2[C@H]1O [8-Br-cAMP, 8-Bromoadenosine 3′,5′-cyclic monophosphate]
saturation concentration for improvement of hepatic programming ([1]; added from day 7 after removal of doxycycline, P and A, ALB flow analysis day 13, FIG. 8): ~200 µM | hepatic programming (ALB flow analysis) ([1]; different concentrations added from day 7 after removal of doxycycline, P and A, ALB flow analysis day 13, FIG. 8): significantly improved

Cc1cccc(-c2nn(C(=S)Nc3ccccc3)cc2-c2ccnc3ccccc23)n1 [A 83-01]
% ALB-expressing cells (hepatic programming efficiency) [1]: significantly improves

O=C(NOCC1CC1)c1ccc(F)c(F)c1Nc1ccc(I)cc1Cl [PD184352]
specificity and potency compared to other known MEK inhibitors (MEK1 and MEK2): high degree of specificity and potency

O=C(NOC[C@H](O)CO)c1ccc(F)c(F)c1Nc1ccc(I)cc1F [PD0325901]
% ALB-expressing cells (hepatic programming efficiency) [1]: significantly improves
